#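 Briefly, cells in 96-well plates were exposed to five compound concentrations for 48 h, and endpoints were estimated by linear interpolation. Here, GI50 denotes the concentration required for 50% inhibition of growth. TGI denotes the concentration required for complete inhibition of growth.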
# Tests used:
# Assay in all cases: DTP human tumour cell line panel, 48 h
# CAKI-1 renal = tested on: CAKI-1 renal
# U251 CNS = tested on: U251 CNS
# A549 NSCLC = tested on: A549 NSCLC
# SF-268 CNS = tested on: SF-268 CNS
# RXF 393 renal = tested on: RXF 393 renal
# HOP-92 NSCLC = tested on: HOP-92 NSCLC
# K-562 leukemia = tested on: K-562 leukemia
# RPMI-8226 leukemia = tested on: RPMI-8226 leukemia
# SF-539 CNS = tested on: SF-539 CNS
# HT29 colon = tested on: HT29 colon
SMILES,TGI (CAKI-1 renal) [µM],TGI (U251 CNS) [µM],TGI (A549 NSCLC) [µM],TGI (SF-268 CNS) [µM],TGI (RXF 393 renal) [µM],TGI (HOP-92 NSCLC) [µM],TGI (K-562 leukemia) [µM],TGI (RPMI-8226 leukemia) [µM],TGI (SF-539 CNS) [µM],TGI (HT29 colon) [µM],GI50 (CAKI-1 renal) [nM],GI50 (U251 CNS) [µM],GI50 (A549 NSCLC) [µM],GI50 (SF-268 CNS) [µM],GI50 (RXF 393 renal) [µM],GI50 (HOP-92 NSCLC) [µM],GI50 (K-562 leukemia) [µM],GI50 (RPMI-8226 leukemia) [nM],GI50 (SF-539 CNS) [µM],GI50 (HT29 colon) [nM]
O=C1C(=Cc2ccccc2[N+](=O)[O-])N=C(c2ccccc2)N1n1c(-c2ccccc2)nc2ccccc2c1=O,> 100,> 100,> 100,> 100,56.2,49.3,> 100,66.6,> 100,> 100,–,–,–,–,–,–,–,–,–,–
COc1ccc(NS(=O)c2cccc(C)c2)cc1 (stereo not drawn),> 100,> 100,> 100,> 100,> 100,–,> 100,> 100,66.7,> 100,–,–,–,–,–,–,–,–,–,–
COc1ccc(C2=NNC(=O)c3ccccc3N2c2nc(-c3cccs3)nc3ccc(Br)cc23)cc1,> 100,> 100,> 100,> 100,> 100,> 100,> 100,> 100,39.3,> 100,–,–,–,–,–,–,–,–,–,–
C=C1C(=O)O[C@H]2C3C(=C(C)CC[C@@H]12)C(=O)[C@@H]1OC31C (stereo partly drawn),7.9,26.3,28.3,12.6,2.99,10.7,5.35,3.62,6.75,4.28,–,–,–,–,–,–,–,–,–,–
N#Cc1c(C#N)c(-c2ccccc2)n(/N=C\c2ccccc2)c1N,> 100,47.4,71.4,> 100,70.5,68.4,> 100,40.1,55.1,83.1,–,–,–,–,–,–,–,–,–,–
O=S(=O)(/N=C1/SC(=Nc2ccccc2)N(c2ccccc2)/C1=N/S(=O)(=O)c1ccccc1)c1ccccc1,–,70.7,69,–,–,62.9,66.6,44.6,–,48.1,–,–,–,–,–,–,–,–,–,–
O=C(NC/C=C/Br)NC1CCNc2ccccc21 (stereo not drawn),> 100,> 100,> 100,> 100,> 100,–,> 100,58.7,45.8,31.2,–,–,–,–,–,–,–,–,–,–
CC1(C)N=C(N)N=C(N)N1c1ccc(OCCCOc2ccccc2)c(Cl)c1,44.3,11.2,> 100,13.5,22.8,3.83,> 42.8,28.9,15.5,10.5,–,–,–,–,–,–,–,–,–,–
Cc1ccc2c(=O)c(C(=O)N(CCO)CCO)c[nH]c2n1,> 100,> 100,> 100,> 100,> 100,–,> 100,> 100,–,> 100,–,–,–,–,–,–,–,–,–,–
CN(C)C=Nc1nncc2n[nH]nc12,> 100,> 100,> 100,> 100,> 100,–,> 100,> 100,> 100,> 100,–,–,–,–,–,–,–,–,–,–
COC(=O)C1=C(C)NC2(C)OC(C)(O)C(C(C)=O)C12C(C)=O (stereo not drawn),> 100,> 100,> 100,> 100,> 100,89.2,> 100,> 100,57.5,> 100,–,–,–,–,–,–,–,–,–,–
CC(C)CC(NC(=O)C(COc1ccc([N+](=O)[O-])cc1)Cc1ccccc1)C(=O)Nc1ccccc1 (stereo not drawn),83.8,28.7,69.2,–,41.6,34.2,> 100,> 100,18.9,–,–,–,–,–,–,–,–,–,–,–
COc1cc(S(=O)(=O)N/N=C/c2cc(Br)c(O)c(OC)c2)c(OC)cc1NC(C)=O,> 100,> 100,> 100,–,> 100,> 100,> 100,> 100,41.8,> 100,–,–,–,–,–,–,–,–,–,–
CC(C)c1nccn1Cc1ccc(Cl)cc1Cl,> 100,> 100,> 100,> 100,–,> 100,> 100,57.8,> 100,> 100,–,–,–,–,–,–,–,–,–,–
COc1cc2c(cc1O)CC[C@@H]1C2CC[C@@]2(C)C1CC[C@@H]2O (stereo partly drawn),> 97.4,> 62.4,> 100,> 100,57.6,> 97.9,26.1,13.5,4.2,64.6,–,–,–,–,–,–,–,–,–,–
CCOC(=O)C[n+]1ccc2c([nH]c3cc(OC)ccc32)c1C,> 100,> 100,> 100,> 100,> 100,> 100,> 100,> 100,> 100,> 100,–,–,–,–,–,–,–,–,–,–
CC1(C)CC2(C)OC(=N)C1(C#N)C2(C#N)C#N (stereo not drawn),12.3,29.3,60,33.8,27.2,10.5,33.5,23.7,24.5,13.4,–,–,–,–,–,–,–,–,–,–
NC1CCCCC1N.O=S(=O)([O-])CCCN1CCN(CCO)CC1.O=S(=O)([O-])CCCN1CCN(CCO)CC1.[Pt+4],9.16,> 100,> 100,> 78,82.5,59.3,44.8,20.5,> 100,> 22.1,856,14.9,4.7,3.72,15.9,19,4.81,423,10.7,945
COc1ccc(N2C(=O)C(N3C(=O)C=CC3=O)C2C=O)cc1 (stereo not drawn),> 100,> 100,> 100,> 100,–,> 100,> 100,> 100,> 100,> 100,–,–,–,–,–,–,–,–,–,–
CSC1NNC2(C(=O)N1)c1ccccc1-c1ccccc12 (stereo not drawn),> 10,–,> 10,> 10,> 10,> 10,> 10,> 10,> 10,> 10,–,–,–,–,–,–,–,–,–,–
Cc1ccc([N+](=O)[O-])cc1NC(=O)C(=O)C1CCC2=C(Sc3ccccc3N2)C1=O (stereo not drawn),> 100,> 100,> 100,> 100,> 100,> 100,–,–,> 100,> 100,–,–,–,–,–,–,–,–,–,–

# From PubChem BioAssay (NCI)
